Test results reported in patent US6492303B1, “Compositions for protecting a plant from a disease and using method thereof” (priority 1998, dated 2002).

What was measured:
rice plant “Nihonbare” [1] = assay: Test 11: production of Sakuranetin and Momilactone-A in wounded rice blades treated with L-cysteine/D-glucose and comparative solutions; details: rice fifth blades, 25 μl test solution on 1 mm cuts, 60 hours at 25° C. under light
[2] = test system: various pathogenic bacteria of plants including Pyricularia oryzae; details: antibacterial activity; stated as known, no test described; cited from earlier work
rice plant “Nihonbare” [3] = assay: Test 1: production of Sakuranetin and Momilactone-A in wounded rice blades treated with DL-methionine/D-glucose solutions; type: in vivo; details: rice fifth blades, 25 μl test solution on 1 mm cuts, 60 hours at 25° C. under light; detected amount per cut
Procedure: The structural formula of Sakuranetin is shown in Formula 1, and of Momilactone-A in Formula 2. [drawing 1]
A control section was set up similarly except using 25 μl of distilled water only.
Unit: ng/spot (detected amount per cut)

Eggplant = details: 500 ml per stock sprayed on foliage, aboveground part 72 hours after spraying; Non-treating Section = 100
Procedure: (§1) Above plants in the age of 5-6 blades were employed for the test. […] The application for MG3 and M1 was executed in the form of spraying on the foliage by 500 ml per stock. The analysis of phytoalexins were carried out by sampling the aboveground part of plants 72 hours after the spraying, extracting the samples with acetone followed by chromatographic elution with ethyl acetate through a silica gel, and finally analyzing on an HPLC instrument.

Potato = details: 500 ml per stock sprayed on foliage, aboveground part 72 hours after spraying; Non-treating Section = 100
Procedure: as §1

Carrot = details: 500 ml per stock sprayed on foliage, aboveground part 72 hours after spraying; Non-treating Section = 100
Procedure: as §1

Podded pea = details: 500 ml per stock sprayed on foliage, aboveground part 72 hours after spraying; Non-treating Section = 100
Procedure: as §1

Soybean = details: 500 ml per stock sprayed on foliage, aboveground part 72 hours after spraying; Non-treating Section = 100
Procedure: as §1

Grape = details: 500 ml per stock sprayed on foliage, aboveground part 72 hours after spraying; Non-treating Section = 100
Procedure: as §1

[4] = test system: rice blight (Pyricularia oryzae); type: in vivo; details: rice “Nihonbare”, 100 ml sprayed on foliage 24 hours before inoculation, measured ten days after inoculation; Control Section 25.1
Tobacco = details: 500 ml per stock sprayed on foliage, aboveground part 72 hours after spraying; Non-treating Section = 100
Procedure: as §1

Chinese cabbage = details: 500 ml per stock sprayed on foliage, aboveground part 72 hours after spraying; Non-treating Section = 100
Procedure: as §1

Tomato = details: 500 ml per stock sprayed on foliage, aboveground part 72 hours after spraying; Non-treating Section = 100
Procedure: as §1

Beat = details: 500 ml per stock sprayed on foliage, aboveground part 72 hours after spraying; Non-treating Section = 100
Procedure: as §1

N[C@@H](CS)C(=O)O [Section C1, L-cysteine]
Amount of Momilactone-A (rice plant “Nihonbare” [1]): 38.99 ng/spot | Amount of Sakuranetin (rice plant “Nihonbare” [1]): 79.10 ng/spot

COc1cc(O)c2c(c1)O[C@H](c1ccc(O)cc1)CC2=O [Sakuranetin]
ED50 [2]: 15 ppm

O=C[C@H](O)[C@@H](O)[C@H](O)[C@H](O)CO [Section GL1, D-glucose]
Amount of Momilactone-A (rice plant “Nihonbare” [1]): not detected | Amount of Sakuranetin (rice plant “Nihonbare” [1]): not detected

C=C[C@]1(C)CC[C@@H]2C(=C[C@H]3OC(=O)[C@@]4(C)C(=O)CC[C@@]2(C)[C@@H]34)C1 [Momilactone-A]
ED50 [2]: 15 ppm

N.N.O=S(=O)(O)O [Section AS1, Ammonium sulfate]
Amount of Momilactone-A (rice plant “Nihonbare” [1]): not detected | Amount of Sakuranetin (rice plant “Nihonbare” [1]): not detected

N[C@@H](CCC(=O)N[C@@H](CS)C(=O)NCC(=O)O)C(=O)O [Section GT1, Glutathione of reduced type]
Amount of Momilactone-A (rice plant “Nihonbare” [1]): not detected | Amount of Sakuranetin (rice plant “Nihonbare” [1]): not detected

CSCCC(N)C(=O)O (racemic) [Section M1, DL-methionine]
Amount of Momilactone-A (rice plant “Nihonbare” [3]): 55.89 ng/spot | Amount of Sakuranetin (rice plant “Nihonbare” [3]): 122.56 ng/spot | Lubimin (Eggplant), produced amount per unit weight (Eggplant): 23,070 | Ricitin (Potato), produced amount per unit weight (Potato): 590 | 6-Methoxymelain (Carrot), produced amount per unit weight (Carrot): 3,222 | Pisatin (Podded pea), produced amount per unit weight (Podded pea): 4,522 | Griceorin (Soybean), produced amount per unit weight (Soybean): 1,910 | α-Vinipherin (Grape), produced amount per unit weight (Grape): 962 | Necrosis Ratio = (necrosis area + decay area)/total area [4]: 7.8% | Capsydiol (Tobacco), produced amount per unit weight (Tobacco): 1,907 | Blacinin (Chinese cabbage), produced amount per unit weight (Chinese cabbage): 18,600 | Ricitin (Tomato), produced amount per unit weight (Tomato): 10,039 | Vetablugarin (Beat), produced amount per unit weight (Beat): 1,810
